Results reported in patent publication US9765035B2 (priority 2013, dated 2017).
pIC50: −log10 of the molar value. Like-named read-outs stand apart in the source and are kept apart here.

Target: T1, human PRMT1 (Homo sapiens, UniProt Q99873)
T1 construct: GST-tagged PRMT1; made in house; host or cells: High Five insect cells (baculovirus)
Assay: biochemical
Text: General Materials. S-adenosylmethionine (SAM), S-adenosylhomocysteine (SAH), bicine, Tween20, dimethylsulfoxide (DMSO), bovine skin gelatin (BSG), and Tris(2-carboxyethyl)phosphine hydrochloride solution (TCEP) were purchased from Sigma-Aldrich at the highest level of purity possible. ^3H-SAM was purchase from American Radiolabeled Chemicals with a specific activity of 80 Ci/mmol. 384-well streptavidin Flashplates were purchased from PerkinElmer.
Substrates. Peptide representative of human histone H4 residues 36-50 was synthesized with an N-terminal linker-affinity tag motif and a C-terminal amide cap by 21st Century Biochemicals. The peptide was purified by high-performance liquid chromatography (HPLC) to greater than 95% purity and confirmed by liquid chromatography mass spectrometry (LC-MS). The sequence was Biot-Ahx-[…]-amide (SEQ ID NO.:1).
Molecular Biology: Full-length human PRMT1 isoform 1 (NM_001536.5) transcript clone was amplified from an HEK 293 cDNA library, incorporating flanking 5′ sequence encoding a FLAG tag ([…]) (SEQ ID NO.:2) fused directly to Met 1 of PRMT1. The amplified gene was subcloned into pFastBacI (Life Technologies) modified to encode an N-terminal GST tag and a TEV cleavage sequence
Protein Expression. Recombinant baculovirus were generated according to Bac-to-Bac kit instructions (Life Technologies). Protein over-expression was accomplished by infecting exponentially growing High Five insect cell culture at 1.5×10^6 cell/ml with 1:100 ratio of virus. Infections were carried out at 27° C. for 48 hours, harvested by centrifugation, and stored at −80° C. for purification.
Protein Purification. […] GST-tagged PRMT1 was eluted with 50 mM Tris, 2 mM glutathione, pH 7.8, dialysed in buffer A and concentrated to 1 mg/mL. The purity of recovered protein was 73%. Reference: Wasilko, D. J. and S. E. Lee: “TIPS: titerless infected-cells preservation and scale-up” Bioprocess J., 5 (2006), pp. 29-32.
General Procedure for PRMT1 Enzyme Assays on Peptide Substrates. The assays were all performed in a buffer consisting of 20 mM Bicine (pH=7.6), 1 mM TCEP, 0.005% BSG, and 0.002% Tween 20, prepared on the day of use. Compounds in 100% DMSO (1 ul) were spotted into a polypropylene 384-well V-bottom plates (Greiner) using a Platemate Plus outfitted with a 384-channel head (Thermo Scientific). DMSO (1 ul) was added to Columns 11, 12, 23, 24, rows A-H for the maximum signal control and 1 ul of SAH, a known product and inhibitor of PRMT1, was added to columns 11, 12, 23, 24, rows I-P for the minimum signal control. A cocktail (40 ul) containing the PRMT1 enzyme was added by Multidrop Combi (Thermo-Fisher). The compounds were allowed to incubate with PRMT1 for 30 min at room temperature, then a cocktail (10 ul) containing SAM and peptide was added to initiate the reaction (final volume=51 ul). The final concentrations of the components were as follows: PRMT1 was 0.5 nM, ^3H-SAM was 200 nM, non-radiolabeled SAM was 1.5 uM, peptide was 20 nM, SAH in the minimum signal control wells was 1 mM, and the DMSO concentration was 2%. The assays were stopped by the addition of non-radiolabeled SAM (10 ul) to a final concentration of 300 uM, which dilutes the ^3H-SAM to a level where its incorporation into the peptide substrate is no longer detectable. 50 ul of the reaction in the 384-well polypropylene plate was then transferred to a 384-well Flashplate and the biotinylated peptides were allowed to bind to the streptavidin surface for at least 1 hour before being washed once with 0.1% Tween20 in a Biotek EL×405 plate washer. The plates were then read in a PerkinElmer TopCount plate reader to measure the quantity of ^3H-labeled peptide bound to the Flashplate surface, measured as disintegrations per minute (dpm) or alternatively, referred to as counts per minute (cpm).
Where dpm=disintegrations per minute, cmpd=signal in assay well, and min and max are the respective minimum and maximum signal controls. […]

[1] = biochemical evaluation, peptide substrate, read-out: PRMT1 IC50
[2] = single experiment or average of multiple experiments, read-out: PRMT1 biochemical evaluation (numerical)

T1 sequence (Q99873 other isoform, or with tags, fused parts or gaps): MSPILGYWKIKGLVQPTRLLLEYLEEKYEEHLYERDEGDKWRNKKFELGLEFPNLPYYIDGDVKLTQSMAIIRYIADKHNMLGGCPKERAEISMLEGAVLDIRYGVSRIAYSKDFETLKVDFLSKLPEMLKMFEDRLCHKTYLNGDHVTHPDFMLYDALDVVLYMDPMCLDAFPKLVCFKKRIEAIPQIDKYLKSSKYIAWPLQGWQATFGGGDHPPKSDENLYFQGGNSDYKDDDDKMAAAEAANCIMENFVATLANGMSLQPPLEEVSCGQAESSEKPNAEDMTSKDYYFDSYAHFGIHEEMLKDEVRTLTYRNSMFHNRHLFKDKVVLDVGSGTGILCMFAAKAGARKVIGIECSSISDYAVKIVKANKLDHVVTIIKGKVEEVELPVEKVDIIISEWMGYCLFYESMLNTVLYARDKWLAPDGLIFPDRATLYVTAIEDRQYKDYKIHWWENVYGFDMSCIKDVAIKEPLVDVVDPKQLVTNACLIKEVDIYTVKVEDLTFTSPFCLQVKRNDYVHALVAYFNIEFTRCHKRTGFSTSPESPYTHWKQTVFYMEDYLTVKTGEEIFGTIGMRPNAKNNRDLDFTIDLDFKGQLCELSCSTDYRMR

Work on `CNCCN(C)Cc1nn(C)c2ccc(OCC(C)C)cc12` [Compound 3, N^1-((5-iso-butoxy-1-methyl-1H-indazol-3-yl)methyl)-N^1,N^2-dimethylethane-1,2-diamine] yielded a pIC50 [1] of over 7.00 and a pIC50 [2] of 7.25.

Work on `CNCCN(C)Cc1n[nH]c2ccc(OC3CCN(C(C)=O)CC3)cc12` [Compound 58, 1-(4-((3-((methyl(2-(methylamino)ethyl)amino)methyl)-1H-indazol-5-yl)oxy)piperidin-1-yl)ethan-1-one] yielded a pIC50 [1] of 6.00 to 7.00 and a pIC50 [2] of 7.24.

`CNCCN(C)Cc1n[nH]c2ccc(Oc3ccc(Cl)cc3)cc12` [Compound 57] gave a pIC50 [1] of 6.00 to 7.00 and a pIC50 [2] of 7.36.

`CNCCN(C)Cc1n[nH]c2ccc(OCc3ccn(C)n3)cc12` [Compound 20] showed a pIC50 [1] of over 7.00 and a pIC50 [2] of 8.20.

`CNCCN(C)Cc1n[nH]c2ccc(OCc3cccc(C(C)=O)c3)cc12` [Compound 73] showed a pIC50 [1] of over 7.00 and a pIC50 [2] of 6.85.

Molecule `CNCCN(C)Cc1c2cc(OCc3ccc(C#N)cc3)ccc2nn1C1CCOCC1` [Compound 53] has a pIC50 [1] of 5.00 to 5.52 and a pIC50 [2] of 5.75.

For `CNCCN(C)Cc1n[nH]c2ccc(OC3CCOCC3)cc12` [Compound 29, N^1,N^2-dimethyl-N^1-((5-((tetrahydro-2H-pyran-4-yl)oxy)-1H-indazol-3-yl)methyl)ethane-1,2-diamine], the pIC50 [1] was over 7.00 and the pIC50 [2] was 7.55.

For `CNCCN(C)Cc1n[nH]c2ccc(OCc3cccc(C(N)=O)c3)cc12` [Compound 66], the pIC50 [1] was over 7.00 and the pIC50 [2] was 7.46.

With `CNCCN(C)Cc1c2cc(OCc3ccc(C#N)cc3)ccc2nn1C(C)C` [Compound 34] the pIC50 [1] was 5.00 to 5.52 and the pIC50 [2] was 6.74.

In the case of `CNCCN(C)Cc1n[nH]c2cccc(OCCCC(O)CO)c12` (stereo not drawn) [Compound 41, 5-((3-((methyl(2-(methylamino)ethyl)amino)methyl)-1H-indazol-4-yl)oxy)pentane-1,2-diol], the pIC50 [1] was 6.00 to 7.00 and the pIC50 [2] was 7.17.

In the case of `CNCCN(C)Cc1n[nH]c2ccc(OCC3CCN(C(C)=O)CC3)cc12` [Compound 51], the pIC50 [1] was 5.52 to 6.00 and the pIC50 [2] was 5.26.

`CNCCN(C)Cc1n[nH]c2ccc(Oc3ccccc3C)cc12` [Compound 60] showed a pIC50 [1] of over 7.00 and a pIC50 [2] of 6.45.

For `CNCCN(C)Cc1n[nH]c2ccc(Oc3ccccc3C(F)(F)F)cc12` [Compound 49], the pIC50 [1] was 5.00 to 5.52 and the pIC50 [2] was 7.80.

For `CNCCN(C)Cc1n[nH]c2ccc(N3CCC4(CCCCC4)CC3)cc12` [Compound 43, N^1-((5-(3-azaspiro[5.5]undecan-3-yl)-1H-indazol-3-yl)methyl)-N^1,N^2-dimethylethane-1,2-diamine], the pIC50 [1] was over 7.00 and the pIC50 [2] was 6.36.

Molecule `CNCCN(C)Cc1nn(C2CCN(C(C)=O)CC2)c2ccc(OCc3ccc(C#N)cc3)cc12` [Compound 38] has a pIC50 [1] of 5.00 to 5.52 and a pIC50 [2] of 6.26.

With `CNCCN(C)Cc1n[nH]c2ccc(Oc3cccc(Cl)c3)cc12` [Compound 27, N^1-((5-(3-chlorophenoxy)-1H-indazol-3-yl)methyl)-N^1,N^2-dimethylethane-1,2-diamine] the pIC50 [1] was over 7.00 and the pIC50 [2] was 7.50.

`CNCCN(C)Cc1n[nH]c2ccc(OCC3CCCC3)cc12` [Compound 52] was tested, and the pIC50 [1] was 5.52 to 6.00 and the pIC50 [2] was 5.43.

Molecule `CNCCN(C)Cc1n[nH]c2ccc(OCCC(C)C)cc12` [Compound 8] has a pIC50 [1] of over 7.00 and a pIC50 [2] of 8.11.

`CNCCN(C)Cc1n[nH]c2ccc(OCCc3ccccc3)cc12` [Compound 7] showed a pIC50 [1] of over 7.00 and a pIC50 [2] of 8.18.

Work on `CNCCN(C)Cc1n[nH]c2ccc(OC3CCOC3)cc12` (stereo not drawn) [Compound 25, N^1,N^2-dimethyl-N^1-((5-((tetrahydrofuran-3-yl)oxy)-1H-indazol-3-yl)methyl)ethane-1,2-diamine] yielded a pIC50 [1] of at least 7.00 and a pIC50 [2] of 7.09.

`CNCCN(C)Cc1n[nH]c2cccc(OCCC(O)CO)c12` (stereo not drawn) [Compound 40] gave a pIC50 [1] of 6.00 to 7.00 and a pIC50 [2] of 5.41.
